ChEMBL document CHEMBL4002640, “Discovery of MK-1832, a Kv1.5 inhibitor with improved selectivity and pharmacokinetics” (Bioorg Med Chem Lett, 2017)

How the values were obtained:
[1] = biological target: T1, Potassium voltage-gated channel subfamily A member 5 (Homo sapiens, UniProt P22460); assay: Inhibition of Kv1.5 (unknown origin)
[2] = biological target: T2, Voltage-gated inwardly rectifying potassium channel KCNH2 (Homo sapiens, UniProt Q12809); assay: Displacement of [3H]-MK499 from human ERG IKr channel expressed in HEK293 cell membranes
KCNQ1/KCNE1 (IKs) = KCNQ1/KCNE1 (IKs) (Homo sapiens, UniProt P15382+P51787); assay: Inhibition of human KCNQ1/KCNE1 expressed in HEK293 cells assessed as reduction in slowly activating delayed rectifier cardiac potassium current at 10 uM by patch clamp electrophysiology method; assay type: cell-based; conditions: HEK293 cells expressing human KCNQ1/KCNE1
Homo sapiens = species: Homo sapiens; assay: Substrate activity at human P-gp assessed as efflux ratio
[3] = Metabolic stability in human hepatocytes up to 3 hrs by mass spectrometry; assay type: ADME, cell-based, Hepatocyte
[4] = Drug metabolism in human hepatocytes assessed as oxidation of the A/B ring nitrogens up to 3 hrs by mass spectrometry; assay type: ADME, cell-based, Hepatocyte
[5] = Drug metabolism in human hepatocytes assessed as oxidation of the ethane at the center up to 3 hrs by mass spectrometry; assay type: ADME, cell-based, Hepatocyte
[6] = biological target: T1, Potassium voltage-gated channel subfamily A member 5; assay: Inhibition of Kv1.5 mediated ultra-rapid delayed rectifier current Ikur in human atrial myocytes by voltage-patch clamp electrophysiology method; assay type: cell-based
[7] = biological target: Voltage-gated potassium channel, IKs; KCNQ1(Kv7.1)/KCNE1(MinK) (Homo sapiens, UniProt P15382+P51787); assay: Inhibition of human KCNQ1/KCNE1 expressed in HEK293 cells assessed as reduction in slowly activating delayed rectifier cardiac potassium current by patch clamp electrophysiology method; assay type: cell-based
[8] = biological target: T2, Voltage-gated inwardly rectifying potassium channel KCNH2; assay: Inhibition of human ERG expressed in CHOK1 cells assessed as reduction in rapidly activating delayed rectifier cardiac potassium current by whole-cell voltage-patch clamp assay; assay type: cell-based
[9] = biological target: T3, A-type voltage-gated potassium channel KCND3 (Homo sapiens, UniProt Q9UK17); assay: Inhibition of Kv4.3 (unknown origin) assessed as reduction in transient outward potassium current by high throughput clamp method
T3 sequence (Q9UK17 whole entry): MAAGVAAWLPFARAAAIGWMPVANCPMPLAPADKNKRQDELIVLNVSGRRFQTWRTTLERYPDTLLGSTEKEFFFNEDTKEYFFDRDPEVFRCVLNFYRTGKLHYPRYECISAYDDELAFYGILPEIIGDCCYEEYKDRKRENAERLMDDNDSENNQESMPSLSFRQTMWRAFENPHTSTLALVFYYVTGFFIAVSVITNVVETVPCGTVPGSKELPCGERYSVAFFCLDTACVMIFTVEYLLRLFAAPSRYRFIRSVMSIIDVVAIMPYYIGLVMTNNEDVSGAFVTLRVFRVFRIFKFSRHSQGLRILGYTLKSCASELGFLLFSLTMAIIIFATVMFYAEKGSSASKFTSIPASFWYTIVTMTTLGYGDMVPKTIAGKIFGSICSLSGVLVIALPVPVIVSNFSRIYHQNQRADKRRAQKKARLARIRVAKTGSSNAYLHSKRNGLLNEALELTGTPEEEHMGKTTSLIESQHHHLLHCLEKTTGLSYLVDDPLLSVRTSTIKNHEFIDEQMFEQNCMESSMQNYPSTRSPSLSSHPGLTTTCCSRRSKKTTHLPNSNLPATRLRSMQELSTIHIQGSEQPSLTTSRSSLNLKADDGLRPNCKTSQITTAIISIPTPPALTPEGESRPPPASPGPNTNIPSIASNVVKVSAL

[10] = biological target: Sodium channel protein type 5 subunit alpha (Homo sapiens, UniProt Q14524); assay: Inhibition of SCN5a (unknown origin) assessed as reduction in sodium current at 10 uM by voltage/ion probe reader method
Canis familiaris [11] = assay: Anti-atrial fibrillation activity in iv dosed anesthetized Mongrel dog assessed as increase in atrial refractory period at 400 ms of basic cycle length administered as 60 mins infusion measured up to 60 mins by electrophysiology method; assay type: functional, Canis lupus familiaris
Canis familiaris [12] = assay: Effect on ventricular refractory period in iv dosed anesthetized Mongrel dog assessed as threshold change in ventricular refractory period at 400 ms of basic cycle length administered as 60 mins infusion measured up to 60 mins by electrophysiology method; assay type: ADME, organism-based, Canis lupus familiaris; conditions: in vivo, 1 h
[13] = Selectivity index, ratio of IC50 for human KCNQ1/KCNE1 IKs channel expressed in HEK293 cells to IC50 for Kv1.5 IKur channel in human atrial myocytes
Canis familiaris [14] = assay: Selectivity index, ratio of compound effect for anti-atrial fibrillation activity in iv dosed anesthetized Mongrel dog assessed as increase in atrial refractory period to compound effect on ventricular refractory period in iv dosed anesthetized Mongrel dog; design: species or system Canis lupus familiaris

T1 sequence (P22460 whole entry): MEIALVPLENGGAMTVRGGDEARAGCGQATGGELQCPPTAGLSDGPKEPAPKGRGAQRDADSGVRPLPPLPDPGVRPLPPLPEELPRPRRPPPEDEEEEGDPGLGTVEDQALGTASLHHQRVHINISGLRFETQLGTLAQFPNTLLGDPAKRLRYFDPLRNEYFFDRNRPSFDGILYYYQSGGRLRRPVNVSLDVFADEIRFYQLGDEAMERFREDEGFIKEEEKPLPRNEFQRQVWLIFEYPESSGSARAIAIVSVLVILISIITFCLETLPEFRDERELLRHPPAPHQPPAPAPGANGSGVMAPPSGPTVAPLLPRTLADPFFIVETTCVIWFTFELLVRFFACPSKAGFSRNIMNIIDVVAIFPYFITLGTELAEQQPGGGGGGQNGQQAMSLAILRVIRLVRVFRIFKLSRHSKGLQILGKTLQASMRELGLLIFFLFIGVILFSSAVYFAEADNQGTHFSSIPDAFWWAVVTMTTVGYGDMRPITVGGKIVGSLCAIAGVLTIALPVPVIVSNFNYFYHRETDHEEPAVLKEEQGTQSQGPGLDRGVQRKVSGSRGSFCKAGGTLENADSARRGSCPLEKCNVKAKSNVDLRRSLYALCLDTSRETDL
T2 sequence (Q12809 whole entry): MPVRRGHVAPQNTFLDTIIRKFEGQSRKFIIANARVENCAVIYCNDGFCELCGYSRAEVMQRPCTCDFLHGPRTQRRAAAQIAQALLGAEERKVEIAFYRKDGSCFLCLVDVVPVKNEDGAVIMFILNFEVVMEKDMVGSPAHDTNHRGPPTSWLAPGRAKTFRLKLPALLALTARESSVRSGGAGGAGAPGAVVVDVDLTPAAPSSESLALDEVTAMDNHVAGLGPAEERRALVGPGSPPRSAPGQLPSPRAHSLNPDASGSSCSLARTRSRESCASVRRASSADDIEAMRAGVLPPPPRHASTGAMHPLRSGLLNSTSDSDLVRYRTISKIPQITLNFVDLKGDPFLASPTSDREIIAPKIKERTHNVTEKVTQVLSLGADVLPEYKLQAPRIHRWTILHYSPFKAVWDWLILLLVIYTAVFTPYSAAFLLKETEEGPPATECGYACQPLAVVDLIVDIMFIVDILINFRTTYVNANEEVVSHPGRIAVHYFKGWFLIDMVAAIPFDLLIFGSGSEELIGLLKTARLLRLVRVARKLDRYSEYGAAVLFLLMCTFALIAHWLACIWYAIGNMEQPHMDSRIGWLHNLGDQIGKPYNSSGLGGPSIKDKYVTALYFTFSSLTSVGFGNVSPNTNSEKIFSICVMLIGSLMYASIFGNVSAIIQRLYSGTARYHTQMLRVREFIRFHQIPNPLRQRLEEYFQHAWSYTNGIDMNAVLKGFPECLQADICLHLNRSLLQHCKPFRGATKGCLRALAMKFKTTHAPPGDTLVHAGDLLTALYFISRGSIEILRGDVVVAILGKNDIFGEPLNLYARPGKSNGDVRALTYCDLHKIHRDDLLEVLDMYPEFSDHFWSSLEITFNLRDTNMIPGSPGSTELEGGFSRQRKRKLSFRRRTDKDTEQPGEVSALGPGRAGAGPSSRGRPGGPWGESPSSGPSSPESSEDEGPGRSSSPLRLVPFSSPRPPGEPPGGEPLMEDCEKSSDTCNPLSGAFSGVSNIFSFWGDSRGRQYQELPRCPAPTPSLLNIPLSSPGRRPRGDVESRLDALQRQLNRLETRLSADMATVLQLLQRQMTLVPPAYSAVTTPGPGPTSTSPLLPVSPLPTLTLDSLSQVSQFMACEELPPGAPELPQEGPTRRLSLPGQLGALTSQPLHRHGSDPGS
KCNQ1/KCNE1 (IKs), sequence (P51787 whole entry): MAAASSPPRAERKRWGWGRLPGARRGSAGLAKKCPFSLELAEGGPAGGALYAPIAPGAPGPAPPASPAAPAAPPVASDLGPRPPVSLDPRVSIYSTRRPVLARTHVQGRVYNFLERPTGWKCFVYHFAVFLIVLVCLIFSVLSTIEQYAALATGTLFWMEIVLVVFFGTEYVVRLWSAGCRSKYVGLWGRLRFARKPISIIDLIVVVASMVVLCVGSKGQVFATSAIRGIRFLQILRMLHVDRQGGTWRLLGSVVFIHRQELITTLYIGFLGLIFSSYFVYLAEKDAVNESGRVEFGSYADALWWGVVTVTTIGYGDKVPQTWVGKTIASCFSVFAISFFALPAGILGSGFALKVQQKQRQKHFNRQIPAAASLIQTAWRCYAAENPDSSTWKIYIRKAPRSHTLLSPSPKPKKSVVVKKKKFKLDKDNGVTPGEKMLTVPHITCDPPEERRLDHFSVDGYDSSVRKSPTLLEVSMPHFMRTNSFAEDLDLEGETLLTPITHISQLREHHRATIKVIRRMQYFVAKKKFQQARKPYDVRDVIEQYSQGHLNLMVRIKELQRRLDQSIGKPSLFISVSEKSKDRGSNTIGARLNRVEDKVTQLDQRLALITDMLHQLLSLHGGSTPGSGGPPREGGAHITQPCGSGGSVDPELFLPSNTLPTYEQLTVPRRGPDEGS
Voltage-gated potassium channel, IKs; KCNQ1(Kv7.1)/KCNE1(MinK), sequence (P51787 whole entry): as the sequence (P51787 whole entry) above

c1ccc(-c2ccccc2CC(c2cccnc2)c2cccnc2)cc1
IC50 [1]: 1390 nM | IC50 [2]: 7620 nM

c1cncc(C(Cc2ccccc2-c2cncc3ccccc23)c2cccnc2)c1
IC50 [1]: 133 nM | inhibition at 10 µM (KCNQ1/KCNE1 (IKs)): 77% | IC50 [2]: 12000 nM

CC(=O)NC(c1ccccc1-c1cc(Cl)cc(Cl)c1)C(c1cccnc1)c1cccnc1 (stereo unspecified)
IC50 [1]: 148 nM | inhibition at 10 µM (KCNQ1/KCNE1 (IKs)): 0.1% | IC50 [2]: > 30000 nM | Ratio (Homo sapiens): 51

OC(c1cccnc1-c1cc(Cl)cc(Cl)c1)C(c1cccnc1)c1ccccn1 (mixture of isomers)
IC50 [1]: 233 nM | IC50 [2]: > 30000 nM | Ratio (Homo sapiens): 1.1

N#Cc1cccc(-c2cccc(Cl)c2CC(c2cccnc2)c2cccnc2)c1
IC50 [1]: 2860 nM | IC50 [2]: 2560 nM

OC(c1cccnc1-c1ccccc1Cl)C(c1cccnc1)c1cccnc1 (stereo unspecified)
inhibition at 10 µM (KCNQ1/KCNE1 (IKs)): -0.5% | IC50 [2]: > 30000 nM | Ratio (Homo sapiens): 28

COc1cccc(-c2ncccc2CC(c2cccnc2)c2cccnc2)c1
IC50 [1]: 41 nM | inhibition at 10 µM (KCNQ1/KCNE1 (IKs)): 15%

Fc1ccc(CC(c2cccnc2)c2cccnc2)c(C2CC2)c1
IC50 [1]: > 10000 nM

Nc1cccc(C(Cc2cccnc2-c2cc(Cl)cc(Cl)c2)c2cccnc2)n1 (stereo unspecified)
IC50 [1]: 62 nM | inhibition at 10 µM (KCNQ1/KCNE1 (IKs)): 57% | IC50 [2]: 10200 nM

OC(Cc1cccnc1-c1cccc(C(F)(F)F)c1)(c1cccnc1F)c1cccnc1F
IC50 [1]: 195 nM | inhibition at 10 µM (KCNQ1/KCNE1 (IKs)): 16% | Stability [3]: Stable

Fc1ccc(CC(c2cccnc2)c2cccnc2)c(-c2cccc(C(F)(F)F)c2)c1
IC50 [1]: 1280 nM | IC50 [2]: 2230 nM

CN(C)C(=O)c1cccc(-c2ncccc2CC(c2ccnc(N)n2)c2cccnc2F)c1 (racemic)
IC50 [1]: 161 nM | inhibition at 10 µM (KCNQ1/KCNE1 (IKs)): 61% | IC50 [2]: > 30000 nM

FC(F)(F)c1cccc(-c2ncccc2CC(c2cccnc2)c2cccnc2)c1
IC50 [1]: 84 nM | inhibition at 10 µM (KCNQ1/KCNE1 (IKs)): 23% | IC50 [2]: > 30000 nM

CN(C)C(=O)c1cccc(-c2ccc(F)cc2CC(c2cccnc2)c2cccnc2)c1
Drug metabolism [4]: Metabolite_Detected | Drug metabolism [5]: Metabolite_Detected | Stability [3]: Unstable

c1cncc(-c2ccccc2CC(c2cccnc2)c2cccnc2)c1
IC50 [1]: 64 nM | inhibition at 10 µM (KCNQ1/KCNE1 (IKs)): 22%

Clc1ccccc1-c1ncccc1CC(c1cccnc1)c1cccnc1
IC50 [1]: 23 nM | inhibition at 10 µM (KCNQ1/KCNE1 (IKs)): 24% | IC50 [2]: > 30000 nM

O[C@@H](c1cccnc1-c1cccc(C(F)(F)F)c1)C(c1cccnc1)c1cccnc1
IC50 [1]: 290 nM | inhibition at 10 µM (KCNQ1/KCNE1 (IKs)): -14% | IC50 [2]: > 30000 nM | Ratio (Homo sapiens): 7

OC(c1cccnc1-c1cccc(Cl)c1Cl)C(c1cccnc1)c1cccnc1 (racemic)
IC50 [1]: 110 nM | inhibition at 10 µM (KCNQ1/KCNE1 (IKs)): -3.3% | Ratio (Homo sapiens): 17

CS(=O)(=O)Nc1cccc(-c2cc(F)ccc2CC(c2cccnc2)c2cccnc2)n1
IC50 [1]: 1590 nM

OC(c1cccnc1-c1cccc(Cl)c1)C(c1cccnc1)c1ncco1 (mixture of isomers)
IC50 [1]: 276 nM | inhibition at 10 µM (KCNQ1/KCNE1 (IKs)): 16%

Nc1cccc(C(c2cccnc2)C(O)c2cccnc2-c2cc(Cl)cc(Cl)c2)n1 (mixture of isomers)
IC50 [1]: 153 nM | inhibition at 10 µM (KCNQ1/KCNE1 (IKs)): 20% | IC50 [2]: > 30000 nM | Ratio (Homo sapiens): 3.4

c1cncc(C(Cc2ccccc2-c2ccncc2)c2cccnc2)c1
IC50 [1]: 444 nM | IC50 [2]: 22100 nM

OC(c1cccnc1-c1cccc(Cl)c1)C(c1cccnc1)c1cccnc1 (racemic)
IC50 [1]: 283 nM | inhibition at 10 µM (KCNQ1/KCNE1 (IKs)): 4.1% | IC50 [2]: > 30000 nM

CN(c1cccnc1)c1ncccc1CC(c1cccnc1)c1cccnc1
IC50 [1]: 90 nM | inhibition at 10 µM (KCNQ1/KCNE1 (IKs)): 5% | IC50 [2]: > 30000 nM

FC(F)(F)Oc1cccc(-c2ncccc2CC(c2cccnc2)c2cccnc2)c1
IC50 [1]: 33 nM | inhibition at 10 µM (KCNQ1/KCNE1 (IKs)): 67% | IC50 [2]: 12700 nM

CN(C)C(=O)c1cccc(-c2ccccc2CC(c2cccnc2)c2cccnc2)c1
IC50 [1]: 64 nM | inhibition at 10 µM (KCNQ1/KCNE1 (IKs)): 26%

CS(=O)(=O)Nc1cccc([C@H](c2ccc(F)cc2)C(c2cccnc2)c2cccnc2)n1
IC50 [1]: 9 nM | IC50 [6]: 11 nM | IC50 [7]: 790 nM | IC50 [8]: 110000 nM | IC50 [2]: > 30000 nM | IC50 [9]: 2300 nM | inhibition (INH) [10]: Not Active | Stability [3]: Stable | EC10 (Canis familiaris [11]): 31 nM | Activity (Canis familiaris [12]): 6 to 7 µM | Ratio IC50 [13]: 70 | Selectivity Index (Canis familiaris [14]): 210

N#Cc1cccc(-c2cc(F)ccc2CC(c2cccnc2)c2cccnc2)c1
IC50 [1]: 136 nM | inhibition at 10 µM (KCNQ1/KCNE1 (IKs)): 47% | IC50 [2]: 10200 nM | Ratio (Homo sapiens): 0.9

Fc1ccc(CC(c2cccnc2)c2cccnc2)c(-c2cn[nH]c2)c1
IC50 [1]: > 10000 nM

Cc1cc(F)ccc1-c1ccccc1C(C#N)C(c1cccnc1)c1cccnc1 (stereo unspecified)
IC50 [1]: 137 nM | inhibition at 10 µM (KCNQ1/KCNE1 (IKs)): 9.2%

Clc1cccc(-c2ncccc2CC(c2cccnc2)c2cccnc2)c1
IC50 [1]: 30 nM | inhibition at 10 µM (KCNQ1/KCNE1 (IKs)): 36% | IC50 [2]: > 30000 nM

Clc1ccccc1-c1ncccc1CC(c1cccnc1)c1cccnc1Cl (stereo unspecified)
IC50 [1]: 26 nM | inhibition at 10 µM (KCNQ1/KCNE1 (IKs)): 80%

CS(=O)(=O)Nc1cccc(-c2cc(F)ccc2CC(c2cccnc2)c2cccnc2)c1
IC50 [1]: 579 nM | inhibition at 10 µM (KCNQ1/KCNE1 (IKs)): 42%

Nc1cccc(C(Cc2cccnc2-c2cccc(C(F)(F)F)c2)c2cccnc2)n1 (stereo unspecified)
IC50 [1]: 56 nM | inhibition at 10 µM (KCNQ1/KCNE1 (IKs)): 42%

OC(Cc1cccnc1-c1cc(Cl)cc(Cl)c1)(c1cccnc1)c1cccnc1
IC50 [1]: 84 nM | inhibition at 10 µM (KCNQ1/KCNE1 (IKs)): 10% | IC50 [2]: > 30000 nM | Ratio (Homo sapiens): 6.8
